Measurements reported in US6037158A, “Alcohol dehydrogenase and its use for the enzymatic production of chiral hydroxy compounds” (priority 1996, dated 2000).
Read-outs that look alike come from different tables or passages of the source.

How the values were obtained:
[1] = molecular target: T1, alcohol dehydrogenase from L. brevis (Levilactobacillus brevis, UniProt Q84EX5); test: biochemical; format: biochemical; conditions: for Activity: 0.19 mM NADPH, pH 7.0, purified enzyme diluted 1:10
T1 sequence (Q84EX5 2-252): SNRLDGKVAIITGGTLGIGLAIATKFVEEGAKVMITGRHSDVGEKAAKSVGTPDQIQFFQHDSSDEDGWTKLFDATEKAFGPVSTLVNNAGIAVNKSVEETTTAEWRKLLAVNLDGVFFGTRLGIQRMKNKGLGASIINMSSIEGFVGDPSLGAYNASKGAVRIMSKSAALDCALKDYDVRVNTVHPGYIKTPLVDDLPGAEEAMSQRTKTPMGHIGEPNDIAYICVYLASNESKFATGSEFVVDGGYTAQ
Experimental: A series of other ketones and keto esters were used instead of acetophenone and it was tested whether these can be reduced by enzyme catalysis.
The following test mixture was used for this:
970 μl triethanolamine buffer (50 mM; pH 7.0, containing 10 mM keto compound)
20 μl NADPH (0.19 mM in the test)
Some of the ketones were also tested at a concentration of 1 mM in order to verify a possible substrate inhibition at 10 mM.

[2] = Temperature stability of the alcohol dehydrogenase (30 min at temperature, measured at 30° C.); format: physicochemical
Experimental: The temperature stability in the range of 25 to 70° C. was determined in an analogous manner to that described under A. The homogeneous enzyme solution was subjected for 30 min to the recited temperatures and subsequently measured directly at 30° C. with the above test mixture. […] In contrast the ADH from L. kefir is only stable up to 40° C. with a maximum at 37° C., afterwards the activity decreases rapidly. The maximum for this enzyme is at 37° C.

[3] = Temperature optimum of enzyme activity; format: biochemical
[4] = relative to acetophenone = 100, 10 mM keto compound, read-out: Relative act.
[5] = relative to acetophenone = 100, 10 mM keto compound

In the case of `C(CCOCC1CO1)COCC1CO1` (stereo not drawn) [1,4-butanediol-diglyceridyl ether], the Activity ([1]; 10 mM keto compound) is reported as 0.77 U/ml and the activity at 10000 µM ([1]; read-out: Relative act.) is reported as 24%.
In the case of `CC(=O)CC(C)=O` [2,4-pentanedione], the Activity ([1]; 10 mM keto compound) is reported as 4.22 U/ml and the activity at 10000 µM ([1]; read-out: Relative act.) is reported as 130%.
For `CC(=O)c1ccccc1Cl` [2-Cl-acetophenone], the Activity ([1]; 10 mM keto compound) was 0.33 U/ml and the activity at 10000 µM ([1]; read-out: Relative act.) was 10%.
In the case of `CC1CCCCC1=O` (stereo not drawn) [2-methylcyclohexanone], the Activity ([1]; 10 mM keto compound) is reported as 6.25 U/ml and the activity at 10000 µM [1, 4] is reported as 192%.
With `CCOC(=O)C(=O)CCc1ccccc1` [2-oxo-4-phenylbutyric acid ethyl ester] the Activity ([1]; 10 mM keto compound) was 4.60 U/ml and the Relative act. [1, 5] was 141%.
In the case of `CC(=O)c1cccc(Cl)c1` [3-Cl-acetophenone], the Activity ([1]; 10 mM keto compound) is reported as 4.80 U/ml and the activity at 10000 µM ([1]; read-out: Relative act.) is reported as 147%.
`CCOC(=O)CC(=O)CC` [3-oxo-n-valeric acid ethyl ester] showed an Activity ([1]; 10 mM keto compound) of 2.29 U/ml and an activity at 10000 µM [1, 4] of 70%.
Compound `CCC(=O)CC(=O)OC` [3-oxo-n-valeric acid methyl ester] has an Activity ([1]; 10 mM keto compound) of 2.26 U/ml and an activity at 10000 µM [1, 4] of 69%.
`CCOC(=O)CC(=O)CCl` [4-Cl-acetic acid ethyl ester] gave an Activity ([1]; 10 mM keto compound) of 3.04 U/ml and an activity at 10000 µM ([1]; read-out: Relative act.) of 93%.
Compound `CC(=O)c1ccc(Cl)cc1` [4-Cl-acetophenone] has an Activity ([1]; 10 mM keto compound) of 6.63 U/ml and an activity at 10000 µM ([1]; read-out: Relative act.) of 203%.
Work on `CCOC(=O)CCCC(C)=O` [4-acetylbutyric acid ethyl ester] yielded an Activity ([1]; 10 mM keto compound) of 2.84 U/ml and an activity at 10000 µM [1, 4] of 87%.
In the case of `CC(=O)CCCC(=O)O` [4-acetylbutyric acid], the Activity ([1]; 10 mM keto compound) is reported as 0.32 U/ml and the activity at 10000 µM [1, 4] is reported as 10%.
Work on `CCc1ccc(C(C)=O)cc1` [4-ethylacetophenone] yielded an Activity ([1]; 10 mM keto compound) of 2.13 U/ml and an activity at 10000 µM ([1]; read-out: Relative act.) of 65%.
Compound `CCCCOC(C)=O` [acetic acid butyl ester] has an Activity ([1]; 10 mM keto compound) of 2.07 U/ml and an activity at 10000 µM ([1]; read-out: Relative act.) of 64%.
For `CC(=O)CC(=O)OCc1ccccc1` [aceto acetic acid benzyl ester], the Activity ([1]; 10 mM keto compound) was 4.11 U/ml and the activity at 10000 µM [1, 4] was 126%.
For `CCOC(=O)CC(C)=O` [aceto acetic acid ethyl ester], the Activity ([1]; 10 mM keto compound) was 3.54 U/ml and the activity at 10000 µM ([1]; read-out: Relative act.) was 109%.
`COC(=O)CC(C)=O` [aceto acetic acid methyl ester] gave an Activity ([1]; 10 mM keto compound) of 3.81 U/ml and an activity at 10000 µM ([1]; read-out: Relative act.) of 117%.
`O=Cc1ccccc1` [benzaldehyde] showed an Activity ([1]; 10 mM keto compound) of 0.30 U/ml and an activity at 10000 µM ([1]; read-out: Relative act.) of 9%.
Work on `CCOC(=O)CC(=O)c1ccccc1` [benzoyl acetic acid ethyl ester] yielded an Activity ([1]; 10 mM keto compound) of 1.14 U/ml and an activity at 10000 µM [1, 4] of 35%.
`CC(=O)CCc1ccccc1` [benzylacetone] showed an Activity ([1]; 10 mM keto compound) of 3.24 U/ml and an activity at 10000 µM ([1]; read-out: Relative act., relative to acetophenone = 100, 10 mM keto compound) of 99%.
Compound `CC(=O)Cc1ccccc1` [benzylmethyl ketone] has an Activity ([1]; 10 mM keto compound) of 0.36 U/ml and an activity at 10000 µM ([1]; read-out: Relative act.) of 11%.
`CCOC(=O)CC1CCCCC1=O` (stereo not drawn) [cyclohexanone-2-acetic acid ethyl ester] gave an Activity ([1]; 10 mM keto compound) of 0.14 U/ml and an activity at 10000 µM [1, 4] of 4%.
In the case of `CCOC(=O)C1CCCCC1=O` (stereo not drawn) [cyclohexanone-2-carboxylic acid ethyl ester], the Activity ([1]; 10 mM keto compound) is reported as 0.41 U/ml and the activity at 10000 µM [1, 4] is reported as 13%.
`CCOC(=O)C(C)=O` [ethyl pyruvate] showed an Activity ([1]; 10 mM keto compound) of 8.10 U/ml and an activity at 10000 µM [1, 4] of 248%.
For `CCOC(=O)C(C)C(C)=O` (stereo not drawn) [ethyl-2-methylacetoacetate], the Activity ([1]; 10 mM keto compound) was 0.84 U/ml and the activity at 10000 µM [1, 4] was 26%.
Compound `CCOC(=O)C(=O)CCc1ccccc1` [ethyl-2-oxo-4-phenyl butyrate] has an Activity ([1]; 10 mM keto compound) of 0.40 U/ml and a Relative act. [1, 5] of 12%.
`CCCC(=O)CC(=O)OCC` [ethylbutyryl acetate] showed an Activity ([1]; 10 mM keto compound) of 2.21 U/ml and an activity at 10000 µM [1, 4] of 68%.
`CC(=O)CO` [hydroxyacetone] showed an Activity ([1]; 10 mM keto compound) of 0.74 U/ml and an activity at 10000 µM [1, 4] of 23%.
Compound `CCOC(=O)CC(=O)C(C)C` [isobutyrylacetic acid ethyl ester] has an Activity ([1]; 10 mM keto compound) of 1.93 U/ml and an activity at 10000 µM [1, 4] of 59%.
With `CCOC(=O)CCC(C)=O` [laevulinic acid ethyl ester] the Activity ([1]; 10 mM keto compound) was 2.99 U/ml and the activity at 10000 µM [1, 4] was 92%.
Work on `COC(=O)C(C)=O` [methyl pyruvate] yielded an Activity ([1]; 10 mM keto compound) of 3.22 U/ml and an activity at 10000 µM [1, 4] of 98%.
`CC(=O)c1cccc2ccccc12` [methyl-1-naphthyl ketone] showed an Activity ([1]; 10 mM keto compound) of 1.21 U/ml and an activity at 10000 µM [1, 4] of 37%.
Compound `CCC(=O)c1ccccc1` [propiophenone] has an Activity ([1]; 10 mM keto compound) of 0.55 U/ml and an activity at 10000 µM ([1]; read-out: Relative act.) of 17%.
In the case of `CCOC(=O)C(F)(F)F` [trifluoroacetic acid ethyl ester], the Activity ([1]; 10 mM keto compound) is reported as 0.50 U/ml and the activity at 10000 µM ([1]; read-out: Relative act.) is reported as 15%.
For “alcohol dehydrogenase from Lactobacillus kefir: NADP-dependent R-alcohol dehydrogenase from Lactobacillus kefir (DE 40 14 573 C1), comparison enzyme [reference compound]”, the “temperature at which the enzyme is inactivated by 50% (thermal deactivation)” value [2] was 45 °C, the “temperature of maximum stability” value ([2]; 30 min) was 37 °C and the “temperature range in which the enzyme is stable” value ([2]; 30 min) was “up to 40 °C”. The “act. (temperature stability)” value ([2]; 30 min at 25° C.) was 36.5 U/ml, the “act. (temperature stability)” value ([2]; 30 min at 30° C.) was 30.2 U/ml and the “act. (temperature stability)” value ([2]; 30 min at 37° C.) was 35.8 U/ml. For the same compound, the “act. (temperature stability)” value ([2]; 30 min at 40° C.) was 32 U/ml, the “act. (temperature stability)” value ([2]; 30 min at 45° C.) was 26.2 U/ml and the “act. (temperature stability)” value ([2]; 30 min at 50° C.) was 2.4 U/ml. For the same compound, the “act. (temperature stability)” value ([2]; 30 min at 55° C.) was 0 U/ml, the “optimal test temperature (activity maximum)” value [3] was 37 °C and the “act. (temperature optimum)” value ([3]; test temperature 20° C.) was 28.0 U/ml. The “act. (temperature optimum)” value ([3]; test temperature 25° C.) was 28.2 U/ml, the “act. (temperature optimum)” value ([3]; test temperature 30° C.) was 35.2 U/ml and the “act. (temperature optimum)” value ([3]; test temperature 35° C.) was 36.2 U/ml. For the same compound, the “act. (temperature optimum)” value ([3]; test temperature 40° C.) was 34.4 U/ml, the “act. (temperature optimum)” value ([3]; test temperature 45° C.) was 35.4 U/ml and the “act. (temperature optimum)” value ([3]; test temperature 50° C.) was 26.0 U/ml. For the same compound, the “act. (temperature optimum)” value ([3]; test temperature 55° C.) was 3.0 U/ml and the “act. (temperature optimum)” value ([3]; test temperature 60° C.) was 0 U/ml.
ketovaleric acid gave an Activity ([1]; 10 mM keto compound) of 0.27 U/ml and a Relative act. [1, 5] of 8%.
